Where a name gives a salt, the structure may show the parent alone.
Legend:
PKB/Akt [1] = assay: Constitutive PKB/Akt phosphorylation in IPF fibroblasts (Western immunoblot); type: cell-based, human; conditions: 16 h prior to cell lysis
Text: (§1) Cell lysates were then subjected to SDS-PAGE and immunoblotted with specific antibodies against phospho-S^473 Akt and phospho-Y^397 FAK; blots were stripped and re-probed for total Akt and FAK, respectively.
(§2) Research protocols involving human subjects received prior approval by the Institutional Review Board at the University of Michigan. […] Fibroblasts were also isolated from normal-appearing lung tissue sections surgically removed from patients undergoing evaluation for suspected lung cancer. Cells were cultured in medium consisting of Dulbecco's modified Eagle's medium (DMEM; GIBCO, Grand Island, N.Y.) supplemented with 10% fetal bovine serum (FBS; Sigma, St. Louis, Mo.), 100 U/ml penicillin/streptomycin (Sigma, St. Louis Mo.), and fungizone (GIBCO, Grand Island, N.Y.); medium was changed every two days. Passage 3-5 fibroblasts were plated on 60 mm cell culture dishes at a density of 5×10^5 cells/dish and incubated at 37° C. in 5% CO2-95% air. When cells reached 80% confluence, they were growth-arrested for 48 hours in DMEM with 0.01% FBS prior to treatment with/without TGF-β1.
(§3) Porcine-derived TGF-β1 was obtained from R&D Systems, Minneapolis, Minn. All other cell culture reagents were from Sigma, St Louis, Mo. […] Drugs were initially solubilized in DMSO to make a 30 mM “stock” concentration. […]

PKB/Akt [2] = assay: TGF-β1-induced PKB/Akt phosphorylation in normal fibroblasts (Western immunoblot); type: cell-based, human; conditions: TGF-β1 2 ng/ml, 10 μM drug co-treated, 16 h
Text: as §1, §2, §3

FAK [3] = assay: TGF-β1-induced FAK phosphorylation in normal fibroblasts (Western immunoblot); type: cell-based, human; conditions: TGF-β1 2 ng/ml, 10 μM drug co-treated, 16 h
Text: as §1, §2, §3

bleomycin-injured mice = assay: Murine model of bleomycin-induced pulmonary fibrosis (lung collagen, histology); type: in vivo; conditions: 6 mg/kg IP or oral gavage for 21 days
Text: Mice were given intratracheal bleomycin (BL) or saline (control). […] A) Lungs were harvested on day 14 following bleomycin injury and total lung collagen determined as described in “Methods”. […] B) Representative histopathology (hematoxylin and eosin staining, top panels; Masson's trichrome blue staining for collagen, bottom panels) of the lungs of mice intra-tracheally instilled with saline (control) or bleomycin (BL). […] Lungs were examined at day 14 following bleomycin injury.
Tissue sections were stained (H&E, mag 100×) 21 days following bleomycin and 14 days after treatment with NL-71-101.
B6129F2/J mice were purchased from Jackson Laboratories, Bar Harbor, Me., and housed under specific pathogen free conditions in enclosed filter top cages. Clean food and water was given ad libitum. The mice were handled and maintained using microisolator techniques with daily veterinarian monitoring. […]
Mice were euthanized by CO2 asphyxiation and perfused via the heart with 5 ml of normal saline. […] Following centrifugation, the pellet was resuspended in 1 ml of alkali reagent, vortexed to release the dye into solution, and 100 μl transferred to a microplate and absorbance measured at 540 nm. Values for experimental samples were calculated based on a standard curve of known concentrations of purified rat tail collagen. […]

α-SMA [4] = assay: α-SMA expression in lung fibroblasts isolated from drug-treated bleomycin-injured mice (Western); type: in vivo; conditions: 6 mg/kg IP or oral gavage for 21 days
Text: C57BL/6J mice were given intratracheal (IT) saline or bleomycin on day 1. […] Fibroblasts were isolated from lung explants on day 14 and expanded in in vitro cell culture. Cells were lysed in RIPA buffer at passage 2 and 90% confluency. Cell lysates were subjected to sodium dodecyl sulfate polyacrylamide gel electrophoresis and immunoblotted with antibodies against α-SMA (a marker of myofibroblast differentiation), phospho-S^473 Akt, and phospho-Y^397 FAK.
Fibroblasts were isolated from lung explants on day 14 and expanded in in vitro cell culture, initially in the presence of 10% fetal bovine serum and then in the absence of serum for 24 h. Cell lysates were obtained and subjected to SDS-PAGE and immunoblotted with antibodies against the proteins indicated.
Mice were treated with Gleevec by IP injection (6 mg/kg) or oral gavage (6 mg/kg) for 21 days. Fibroblasts were isolated from lung explants and cell lysates subjected to SDS-PAGE and immunoblotted for α-SMA. Blots were stripped and re-probed for α-tubulin. Additionally, the effects of Gleevec on pro-fibrotic signaling of fibroblasts by TGF-α1. […]
To determine the result of systemic administration of AG1879 in stable modulation of signaling/phenotype of fibroblasts and myofibroblasts in vivo, fibroblasts isolated from lungs of bleomycin injured mice were analyzed. […]

α-SMA [5] = assay: α-SMA expression in normal human lung fibroblasts (IMR-90) ± TGF (Western); type: cell-based
Experimental: (§4) Mice were treated with Gleevec by IP injection (6 mg/kg) or oral gavage (6 mg/kg) for 21 days. Fibroblasts were isolated from lung explants and cell lysates subjected to SDS-PAGE and immunoblotted for α-SMA. Blots were stripped and re-probed for α-tubulin. Additionally, the effects of Gleevec on pro-fibrotic signaling of fibroblasts by TGF-α1. Normal human lung fibroblasts (IMR-90) were stimulated ±TGF-â1 (2 ng/ml) Gleevec at the doses indicated for 24 h. Cell lysates were then subjected to SDS-PAGE and immunoblotted for specific antibodies to the proteins shown.
The present invention is not limited to a particular mechanism. Indeed, an understanding of the mechanism is not necessary to practice the present invention. […] Furthermore, these observations emphasize the importance of defining the modulation of fibroblast phenotypes/signaling both in vitro and in vivo.

PKB/Akt [6] = assay: TGF-induced PKB/Akt phosphorylation in normal human lung fibroblasts (IMR-90); type: cell-based; conditions: IMR-90, TGF 2 ng/ml, 24 h
Experimental: as §4
(§5) The present invention is not limited to a particular mechanism. Indeed, an understanding of the mechanism is not necessary to practice the present invention.

FAK [7] = assay: TGF-induced FAK phosphorylation in normal human lung fibroblasts (IMR-90); type: cell-based; conditions: IMR-90, TGF 2 ng/ml, 24 h
Experimental: as §4, §5

ERK-1/2 MAPK = assay: Baseline ERK-1/2 MAPK phosphorylation in normal human lung fibroblasts (IMR-90); type: cell-based; conditions: IMR-90, 24 h, doses indicated in FIG. 9
Experimental: as §4, §5

Nc1ncnc2c1cnn2-c1ccccc1 [c/AG, 4-Amino-7-phenylpyrazol[3,4-d]pyramidine]
inhibition of constitutive PKB/Akt phosphorylation at 10 μM (PKB/Akt [1]): no effect
inhibition of TGF-β1-induced PKB/Akt phosphorylation (PKB/Akt [2]): no effect
inhibition of TGF-β1-induced FAK phosphorylation (FAK [3]): no effect

Cc1ccc(NC(=O)c2ccc(CN3CCN(C)CC3)cc2)cc1Nc1nccc(-c2cccnc2)n1 [Gleevec, imatinib mesylate]
efficacy as an anti-fibrotic agent (bleomycin-injured mice): not to be effective
expression of α-SMA in lung fibroblasts cultured from treated mice (α-SMA [4]): enhanced expression
baseline α-SMA expression (α-SMA [5]; IMR-90, 24 h, no TGF): modest reductions
TGF-α1-induced α-SMA expression (α-SMA [5]; IMR-90, TGF 2 ng/ml, 24 h): does not inhibit
TGF-α1-induced phosphorylation/activation of PKB/Akt (PKB/Akt [6]): promoted/enhanced
TGF-α1-induced phosphorylation/activation of FAK (FAK [7]): promoted/enhanced
baseline phosphorylation of ERK-1/2 MAPK (ERK-1/2 MAPK): dose-dependently enhanced
